{"source": "patent US9493464B2", "about": "“Wee1 degradation inhibitors” (The Scripps Research Institute, priority 2012, dated 2016)", "key": {"FLT3": {"molecular_target": "T1, FLT3 (Homo sapiens, UniProt P36888)", "T1 construct": "Reaction Biology Corporation (contract assay)", "T1 sequence (P36888 27-993)": "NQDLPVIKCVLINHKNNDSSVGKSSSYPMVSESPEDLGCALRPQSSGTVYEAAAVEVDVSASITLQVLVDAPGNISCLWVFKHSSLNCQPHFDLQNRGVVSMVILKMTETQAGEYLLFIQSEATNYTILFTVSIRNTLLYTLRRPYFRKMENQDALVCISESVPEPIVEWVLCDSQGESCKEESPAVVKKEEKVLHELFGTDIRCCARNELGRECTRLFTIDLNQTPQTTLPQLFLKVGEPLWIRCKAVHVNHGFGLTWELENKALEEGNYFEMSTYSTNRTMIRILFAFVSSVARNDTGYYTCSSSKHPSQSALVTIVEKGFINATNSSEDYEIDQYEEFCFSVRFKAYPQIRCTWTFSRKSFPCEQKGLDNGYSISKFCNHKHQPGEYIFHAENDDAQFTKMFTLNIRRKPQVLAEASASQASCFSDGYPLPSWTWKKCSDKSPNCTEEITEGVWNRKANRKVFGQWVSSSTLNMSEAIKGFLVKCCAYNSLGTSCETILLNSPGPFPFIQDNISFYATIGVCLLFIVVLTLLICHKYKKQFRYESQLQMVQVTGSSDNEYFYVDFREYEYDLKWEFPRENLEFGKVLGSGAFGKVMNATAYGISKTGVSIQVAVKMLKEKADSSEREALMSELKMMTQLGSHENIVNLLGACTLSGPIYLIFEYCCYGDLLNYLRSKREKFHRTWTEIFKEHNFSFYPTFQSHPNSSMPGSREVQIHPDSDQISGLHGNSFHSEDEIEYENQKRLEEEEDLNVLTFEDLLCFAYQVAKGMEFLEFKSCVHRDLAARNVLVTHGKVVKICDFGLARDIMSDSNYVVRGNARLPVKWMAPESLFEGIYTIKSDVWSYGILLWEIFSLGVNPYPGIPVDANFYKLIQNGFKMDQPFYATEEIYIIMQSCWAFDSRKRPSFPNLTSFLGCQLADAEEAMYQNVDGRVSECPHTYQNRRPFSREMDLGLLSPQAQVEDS", "test": "In vitro kinase assay, FLT3 (Reaction Biology Corporation)", "format": "biochemical", "conditions": "10 μM ATP; read-out: FLT3 IC50", "protocol": "Compounds were tested in 10-dose IC50 mode with 3-fold serial dilution starting at 50 μM. […] Reactions were carried out at 10 μM ATP. Average and standard deviations of reactions carried out in triplicate are shown.\nIn vitro kinase assay to detect CK1 or FLT3 activity: CK1 and FLT3 assays as well as complete kinase profile of 296 kinases was performed by Reaction Biology Corporation. For FLT3 20 μM final Abltide was used, sequence: [[…]]. For CK1 (all isoforms) 20 μM CK1 tide was used, sequence: [KRRRAL[pS]VASLPGL] in a standard kinase assay with ^32P-ATP and purified kinase. Incorporation of ^32P-ATP into the peptide was measured after a filter-binding assay. In-house CK1d inhibition assays were performed using a standard homogenous time-resolved fluorescence resonance energy transfer (TR-FRET) format in 50 mM Hepes, pH 7.0, 2.5 mM MgCl2, 0.1 mg/ml bovine serum albumin, 1 mM DL-dithiothreitol, 0.01% Triton X-100 (all from Sigma-Aldrich). Briefly, the CK1δ substrate (DEKTDDE, containing CK1 consensus sequence; 4 μL of a 500 nM stock solution) is labeled with a small Ulight acceptor dye (PerkinElmer). In the presence of 10 μL of 10 nM CK1δ, the Ulight peptide is phosphorylated at a single amino acid that is specifically recognized by a europium chelate (Eu)-labeled phosphospecific antibody. Assays were performed in the presence of 2 μL of compound at different (measured) concentrations, and reactions were stopped by adding 10 μL of 4 nM Eu-anti-p-Topo-IIa (PerkinElmer) in Lance Detection Buffer (Perkin Elmer). Upon excitation of the Eu-labeled antibody, energy is transferred to the acceptor dye resulting in the emission of detected light at 665 nm."}, "SNB-75 (CNS)": {"tested_on": "SNB-75 (CNS)", "test": "NCI Dose Growth Inhibition assay (NCI-60)", "format": "cell-based", "conditions": "Homo sapiens", "protocol": "(§1) Table 3, below, illustrates the activity of some of the compounds of the present invention in the National Cancer Institute's Dose Growth Inhibition assay against several human tumor cell lines selected from the NCI-60 panel.\n(§2) NCI-60 Cancer Cell Line Screening was performed by the National Cancer Institute, using the procedures described on their website (http://dtp.nci.nih.gov/branches/btb/ivelsp.html)"}, "A498 (renal)": {"tested_on": "A498 (renal)", "test": "NCI Dose Growth Inhibition assay (NCI-60)", "format": "cell-based", "conditions": "Homo sapiens", "protocol": "as §1, §2"}, "COLO 205 (colon)": {"tested_on": "COLO 205 (colon)", "test": "NCI Dose Growth Inhibition assay (NCI-60)", "format": "cell-based", "conditions": "Homo sapiens", "protocol": "as §1, §2"}, "RXF393 (renal)": {"tested_on": "RXF393 (renal)", "test": "NCI Dose Growth Inhibition assay (NCI-60)", "format": "cell-based", "conditions": "Homo sapiens, RXF 393", "protocol": "as §1, §2"}, "UACC-62 (melanoma)": {"tested_on": "UACC-62 (melanoma)", "test": "NCI Dose Growth Inhibition assay (NCI-60)", "format": "cell-based", "conditions": "Homo sapiens", "protocol": "as §1, §2"}, "MDA-MB-468 (breast)": {"tested_on": "MDA-MB-468 (breast)", "test": "NCI Dose Growth Inhibition assay (NCI-60)", "format": "cell-based", "conditions": "Homo sapiens", "protocol": "as §1, §2"}, "HeLa cells [1]": {"tested_on": "HeLa cells", "test": "PI-FACS cell cycle analysis", "format": "cell-based", "conditions": "24 hours, result in words", "text": "FIG. 11 illustrates inhibition of CK1δ and CK1ε can induce an S/G2/M phase arrest."}, "HeLa cells [2]": {"tested_on": "HeLa cells", "test": "Cell viability, ATP content (Cell-Titer Glo)", "format": "cell-based", "conditions": "24 hours, result in words", "text": "Error bars represent the standard deviation of three separate experiments."}, "HEK-SW cells": {"tested_on": "HEK-SW cells", "test": "Amyloid β 1-42 production (AlphaLISA)", "format": "cell-based", "conditions": "1 μM; supernatant at 48 hours post plating; result in words", "protocol": "HEK-SW cells, which artificially overexpress mutated APP (K670N/M671L), the so-called Swedish mutation, were cultured on D-MEM supplemented with 10% FBS. HEK-SW cells were kindly provided by laboratory of Dr. Dennis Selkoe. HEK-SW cells were plated in 96 well plates (10,000 cells/well) and at 24 hours post plating replaced media and started treatments. […] DAPT, N [(3,5-Difluorophenyl)acetyl]-L-alanyl-2-phenyl]glycine-1,1-dimethylethyl ester, is a known inhibitor of γ-secretase purchased from TOCRIS Bioscience (Ellisville, Mo., USA). Supernatant of cells were collected at 48 hours post plating and concentration of Amyloid β 1-42 (Aβ 1-42) measured by AlphaLISA method (PerkinElmer, Waltham, Mass., USA) following instructions from the company."}, "K328M-Wee1-luciferase": {"tested_on": "K328M-Wee1-luciferase", "test": "Wee1-luciferase assay (stabilization of K328M-Wee1-luciferase)", "format": "cell-based", "conditions": "for EC50: read-out: EC50 for stabilization of K328M-Wee1-luciferase", "text": "Steady-state level of K328M-Wee1-Luciferase (K328M-Wee1-Luc) was divided by Luciferase level (Luc) and plotted.\nSimilar assays have previously been described; PubChem AID 1807."}}, "note": "Several values for one entry are separate records, joined by “and”; a condition that tells them apart may be missing. Equal entries are not always repeated. Entries after “also recorded” stand apart in the source; their conditions may differ. Where two headings read alike, the source gives them in different places."}
{"smiles": "O=[N+]([O-])c1cccc2[nH]c(CNc3nc(N4CCOCC4)nc4c3ncn4-c3ccsc3)nc12", "note": "[SR-1277]", "values": [{"measurement": "IC50", "setting": "FLT3", "value": 305, "unit": "nM"}, {"measurement": "GI50", "setting": "SNB-75 (CNS); SNB-75", "value": "< 10", "unit": "nM"}, {"measurement": "GI50", "setting": "A498 (renal); A498", "value": 17, "unit": "nM"}, {"measurement": "GI50", "setting": "COLO 205 (colon); COLO 205", "value": 15, "unit": "nM"}, {"measurement": "GI50", "setting": "RXF393 (renal)", "value": "< 10", "unit": "nM"}, {"measurement": "GI50", "setting": "UACC-62 (melanoma); UACC-62", "value": 14, "unit": "nM"}, {"measurement": "GI50", "setting": "MDA-MB-468 (breast); MDA-MB-468", "value": "< 10", "unit": "nM"}, {"measurement": "cell cycle arrest", "setting": "HeLa cells [1]", "value": "induced an S/G2/M arrest"}, {"measurement": "cell viability", "setting": "HeLa cells [2]", "value": "not affected"}, {"measurement": "Aβ1-42 production", "setting": "HEK-SW cells", "value": "inhibit Aβ1-42 production"}, {"measurement": "% Inhibition, Wee1 Degradation", "setting": "K328M-Wee1-luciferase; 0.25 µM", "value": 100.0, "unit": "%"}, {"measurement": "EC50", "setting": "K328M-Wee1-luciferase", "value": 40, "unit": "nM"}]}
{"smiles": "c1ccc2[nH]c(CNc3nc(N4CCOCC4)nc4c3ncn4-c3ccsc3)nc2c1", "note": "[SR-653234]", "values": [{"measurement": "IC50", "setting": "FLT3", "value": "161 nM and 100 nM"}, {"measurement": "GI50", "setting": "SNB-75 (CNS); SNB-75 (CNS), read-out: GI50", "value": 25, "unit": "nM"}, {"measurement": "GI50", "setting": "A498 (renal); A498 (renal), read-out: GI50", "value": 72, "unit": "nM"}, {"measurement": "GI50", "setting": "COLO 205 (colon); COLO 205 (colon), read-out: GI50", "value": 26, "unit": "nM"}, {"measurement": "GI50", "setting": "RXF393 (renal); RXF393 (renal), read-out: GI50", "value": 26, "unit": "nM"}, {"measurement": "GI50", "setting": "UACC-62 (melanoma); UACC-62 (melanoma), read-out: GI50", "value": 68, "unit": "nM"}, {"measurement": "GI50", "setting": "MDA-MB-468 (breast); MDA-MB-468 (breast), read-out: GI50", "value": 16, "unit": "nM"}, {"measurement": "cell cycle arrest", "setting": "HeLa cells [1]", "value": "induced an S/G2/M arrest"}, {"measurement": "cell viability", "setting": "HeLa cells [2]", "value": "without affecting cell viability; also recorded: not affected"}, {"measurement": "Aβ1-42 production", "setting": "HEK-SW cells", "value": "inhibit Aβ1-42 production"}, {"measurement": "EC50", "setting": "K328M-Wee1-luciferase; HeLa cells", "value": 624, "unit": "nM"}, {"measurement": "stabilization of K328M-Wee1-luciferase", "setting": "K328M-Wee1-luciferase; HeLa cells, result in words", "value": "stabilizes Wee1-luciferase"}, {"measurement": "% Inhibition, Wee1 Degradation", "setting": "K328M-Wee1-luciferase; at 250 nM, reported relative to SR-1277 = 100%", "value": 56.8, "unit": "%"}]}
